Active and inactive are the calls of the source.
Key:
[1] = AlphaScreen signal interference compounds, dose response, artefact control for ARNT-TACC3 interaction inhibitor project, biochemical, luminescence, cherry-pick (AID 651705); format: functional;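 also: AlphaScreen bead proximity signal that flags compounds interfering with the detection technology; potency reflects signal decrease which marks the compound as an assay artifact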
[2] = biological target: Potassium voltage-gated channel subfamily KQT member 2 (Rattus norvegicus, UniProt O88943); assay: KCNQ2 potassium channel inhibitors, dose response, cell-based, automated electrophysiology, set II, rat KCNQ2 (AID 588637); format: functional
Potassium voltage-gated channel subfamily KQT member 2, sequence (O88943 whole entry): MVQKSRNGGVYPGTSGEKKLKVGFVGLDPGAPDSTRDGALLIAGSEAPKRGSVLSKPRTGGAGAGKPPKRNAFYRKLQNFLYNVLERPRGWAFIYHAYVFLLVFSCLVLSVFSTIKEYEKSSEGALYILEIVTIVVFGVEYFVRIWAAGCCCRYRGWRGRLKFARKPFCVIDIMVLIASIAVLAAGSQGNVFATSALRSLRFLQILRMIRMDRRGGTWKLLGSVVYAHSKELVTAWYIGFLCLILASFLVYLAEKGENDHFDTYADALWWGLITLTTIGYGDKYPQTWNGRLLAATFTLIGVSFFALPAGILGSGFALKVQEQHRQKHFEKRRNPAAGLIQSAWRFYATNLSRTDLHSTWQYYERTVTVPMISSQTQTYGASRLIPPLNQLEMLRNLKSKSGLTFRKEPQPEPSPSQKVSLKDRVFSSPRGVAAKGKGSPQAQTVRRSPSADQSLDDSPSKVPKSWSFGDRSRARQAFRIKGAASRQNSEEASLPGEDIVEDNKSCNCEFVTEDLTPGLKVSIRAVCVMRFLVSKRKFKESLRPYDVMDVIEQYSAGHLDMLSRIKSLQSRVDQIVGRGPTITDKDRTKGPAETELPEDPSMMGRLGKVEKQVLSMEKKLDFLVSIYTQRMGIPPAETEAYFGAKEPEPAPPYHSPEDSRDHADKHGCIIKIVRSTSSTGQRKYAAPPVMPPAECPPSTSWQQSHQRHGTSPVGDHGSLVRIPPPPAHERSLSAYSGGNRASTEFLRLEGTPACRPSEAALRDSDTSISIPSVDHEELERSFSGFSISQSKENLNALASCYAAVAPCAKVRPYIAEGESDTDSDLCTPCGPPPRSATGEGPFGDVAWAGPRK

Interleukin-8 = biological target: T1, Interleukin-8 (Homo sapiens, UniProt P10145); assay: Dose Response confirmation of uHTS small molecule hits for cystic fibrosis induced NFkb Inhibitors in a PAF-induced IL8 counterscreen.; format: functional; settings: read-out: IC50_Mean
T1 sequence (P10145 whole entry): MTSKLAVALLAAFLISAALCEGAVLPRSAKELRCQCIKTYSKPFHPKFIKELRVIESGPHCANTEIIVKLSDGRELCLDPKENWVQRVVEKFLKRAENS

[3] = ARNT/TACC3 interaction disruptors, potency, confirmation, biochemical, AlphaScreen, cherry-picked samples (AID 651703); format: functional, Homo sapiens;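 also: His-tagged ARNT PAS-B domain paired with GST-TACC3 E629A dimer coactivator fragment; potency of inhibitors that break up the complex and lower AlphaScreen signal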
Protein RecA = biological target: T2, Protein RecA (Mycobacterium tuberculosis, UniProt P9WHJ3); assay: Fluorescence Cell-Free Homogeneous Dose Retest to Identify Inhibitors of RecA-Intein Splicing Activity. [Related pubchem assays (depositor defined):AID2097, AID2223, AID489010, AID492950]; format: functional
T2 sequence (P9WHJ3 whole entry): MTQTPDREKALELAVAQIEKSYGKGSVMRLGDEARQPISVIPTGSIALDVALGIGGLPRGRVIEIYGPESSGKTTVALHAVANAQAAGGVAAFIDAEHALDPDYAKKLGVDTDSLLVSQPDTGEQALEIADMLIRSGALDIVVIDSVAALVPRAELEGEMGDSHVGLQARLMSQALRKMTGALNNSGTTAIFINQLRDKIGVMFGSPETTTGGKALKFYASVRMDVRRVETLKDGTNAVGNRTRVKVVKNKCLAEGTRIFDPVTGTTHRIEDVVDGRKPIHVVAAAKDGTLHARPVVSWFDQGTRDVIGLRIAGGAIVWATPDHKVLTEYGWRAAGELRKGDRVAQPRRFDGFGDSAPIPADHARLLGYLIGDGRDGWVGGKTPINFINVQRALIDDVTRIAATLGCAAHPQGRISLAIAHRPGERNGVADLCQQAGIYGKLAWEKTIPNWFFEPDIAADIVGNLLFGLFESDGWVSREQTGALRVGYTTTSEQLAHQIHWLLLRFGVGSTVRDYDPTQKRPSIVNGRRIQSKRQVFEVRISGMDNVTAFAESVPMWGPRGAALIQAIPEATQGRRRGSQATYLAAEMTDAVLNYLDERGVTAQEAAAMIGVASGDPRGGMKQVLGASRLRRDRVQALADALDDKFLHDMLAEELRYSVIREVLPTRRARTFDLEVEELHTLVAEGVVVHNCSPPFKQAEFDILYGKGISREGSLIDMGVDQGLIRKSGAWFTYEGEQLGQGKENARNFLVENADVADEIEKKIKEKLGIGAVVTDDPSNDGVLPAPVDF

[4] = biological target: T3, Replicative DNA helicase DnaB (Mycobacterium tuberculosis, UniProt P9WMR3); assay: DnaB intein splicing inhibitors, dose response, biochemical, cell-free fluorescence (AID 449749); format: functional
T3 sequence (P9WMR3 whole entry): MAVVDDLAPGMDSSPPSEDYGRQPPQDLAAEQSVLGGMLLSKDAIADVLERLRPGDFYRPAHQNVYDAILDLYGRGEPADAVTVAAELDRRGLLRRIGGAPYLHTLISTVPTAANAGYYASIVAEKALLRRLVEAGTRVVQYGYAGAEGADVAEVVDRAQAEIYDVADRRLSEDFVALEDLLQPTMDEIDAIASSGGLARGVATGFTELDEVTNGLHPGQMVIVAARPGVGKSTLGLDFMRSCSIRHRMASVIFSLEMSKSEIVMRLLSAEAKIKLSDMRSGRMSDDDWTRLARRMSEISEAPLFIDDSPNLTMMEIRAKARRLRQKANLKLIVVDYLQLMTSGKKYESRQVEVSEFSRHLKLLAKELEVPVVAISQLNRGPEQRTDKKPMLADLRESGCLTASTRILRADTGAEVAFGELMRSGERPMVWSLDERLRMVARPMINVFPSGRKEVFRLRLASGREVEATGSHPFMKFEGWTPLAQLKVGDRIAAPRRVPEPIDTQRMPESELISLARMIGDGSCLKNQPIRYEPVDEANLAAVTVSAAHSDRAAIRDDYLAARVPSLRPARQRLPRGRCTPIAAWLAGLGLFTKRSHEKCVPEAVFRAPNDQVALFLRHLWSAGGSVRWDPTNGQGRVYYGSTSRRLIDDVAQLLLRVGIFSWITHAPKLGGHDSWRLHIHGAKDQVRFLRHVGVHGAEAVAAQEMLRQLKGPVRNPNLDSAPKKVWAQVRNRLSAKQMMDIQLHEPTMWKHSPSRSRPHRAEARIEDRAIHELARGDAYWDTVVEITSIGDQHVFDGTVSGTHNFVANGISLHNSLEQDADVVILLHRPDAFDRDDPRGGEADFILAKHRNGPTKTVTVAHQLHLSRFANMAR

[5] = A Cell Based Secondary Assay to Explore Cytotoxicity in THP-1 Cells of Compounds that Modulate Mycobacterium tuberculosis in Media Containing Glycerol versus Media without Glycerol (2).; format: functional
[6] = Vero cell cytotoxicity, cytotoxicity control for M. tuberculosis inhibitor project, purified and synthesized samples, set 3 (AID 504684); format: functional
Genome polyprotein = Genome polyprotein (dengue virus type 2, UniProt P29990); assay: Dengue-2 NS5 methyltransferase inhibitors, primary screen, biochemical, confirmation dose response (AID 588689); format: functional
Genome polyprotein, sequence (P29990 2492-3391 limits assumed): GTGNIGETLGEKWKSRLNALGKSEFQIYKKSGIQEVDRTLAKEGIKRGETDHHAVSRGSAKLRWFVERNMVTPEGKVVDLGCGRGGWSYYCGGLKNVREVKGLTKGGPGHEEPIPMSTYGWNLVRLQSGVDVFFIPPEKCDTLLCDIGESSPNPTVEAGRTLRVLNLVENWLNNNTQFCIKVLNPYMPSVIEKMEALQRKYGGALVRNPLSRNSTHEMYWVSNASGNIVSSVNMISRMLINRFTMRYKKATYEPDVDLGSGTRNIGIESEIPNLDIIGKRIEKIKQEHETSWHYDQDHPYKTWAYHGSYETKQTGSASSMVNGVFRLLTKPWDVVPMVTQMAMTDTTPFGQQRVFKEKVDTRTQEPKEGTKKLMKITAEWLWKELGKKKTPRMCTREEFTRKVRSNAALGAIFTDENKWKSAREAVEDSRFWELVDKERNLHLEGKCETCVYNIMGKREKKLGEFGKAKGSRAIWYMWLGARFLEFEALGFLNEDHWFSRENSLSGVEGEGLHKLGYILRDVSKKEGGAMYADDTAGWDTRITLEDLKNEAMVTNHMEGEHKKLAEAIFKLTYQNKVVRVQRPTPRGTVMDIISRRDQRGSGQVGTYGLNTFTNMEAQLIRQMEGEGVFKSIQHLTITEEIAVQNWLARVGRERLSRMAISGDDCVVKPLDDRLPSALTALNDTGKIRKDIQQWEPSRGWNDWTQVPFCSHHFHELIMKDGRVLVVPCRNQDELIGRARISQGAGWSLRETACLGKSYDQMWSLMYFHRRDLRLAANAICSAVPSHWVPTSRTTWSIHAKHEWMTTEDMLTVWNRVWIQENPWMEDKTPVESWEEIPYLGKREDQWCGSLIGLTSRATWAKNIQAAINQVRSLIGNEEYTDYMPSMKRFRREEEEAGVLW

Nonstructural protein 1 = Nonstructural protein 1 (Influenza A virus, UniProt Q194T2); format: functional, Influenza A virus (A/California/07/2009(H1N1))
Nonstructural protein 1, sequence (Q194T2 whole entry): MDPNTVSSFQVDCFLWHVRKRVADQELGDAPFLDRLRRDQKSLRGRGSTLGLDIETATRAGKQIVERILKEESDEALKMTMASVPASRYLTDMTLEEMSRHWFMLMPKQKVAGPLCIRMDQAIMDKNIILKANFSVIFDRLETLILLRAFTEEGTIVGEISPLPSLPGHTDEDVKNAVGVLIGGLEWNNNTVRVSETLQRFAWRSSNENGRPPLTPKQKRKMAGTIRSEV

Streptococcus = assay: Group A Streptococcus viability loss, dose response, counter-screen for streptokinase expression inhibitor project, luminescence, BacTiterGlo (AID 1915); format: functional, organism-based;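 also: potency for reduction of bacterial viability or growth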
Estrogen receptor beta [7] = biological target: T4, Estrogen receptor beta (Homo sapiens, UniProt Q92731); assay: ERβ–SRC-3 coactivator interaction inhibitors, confirmation, orthogonal assay, biochemical, ELISA, streptavidin-HRP readout (AID 1060)
T4 sequence (Q92731 whole entry): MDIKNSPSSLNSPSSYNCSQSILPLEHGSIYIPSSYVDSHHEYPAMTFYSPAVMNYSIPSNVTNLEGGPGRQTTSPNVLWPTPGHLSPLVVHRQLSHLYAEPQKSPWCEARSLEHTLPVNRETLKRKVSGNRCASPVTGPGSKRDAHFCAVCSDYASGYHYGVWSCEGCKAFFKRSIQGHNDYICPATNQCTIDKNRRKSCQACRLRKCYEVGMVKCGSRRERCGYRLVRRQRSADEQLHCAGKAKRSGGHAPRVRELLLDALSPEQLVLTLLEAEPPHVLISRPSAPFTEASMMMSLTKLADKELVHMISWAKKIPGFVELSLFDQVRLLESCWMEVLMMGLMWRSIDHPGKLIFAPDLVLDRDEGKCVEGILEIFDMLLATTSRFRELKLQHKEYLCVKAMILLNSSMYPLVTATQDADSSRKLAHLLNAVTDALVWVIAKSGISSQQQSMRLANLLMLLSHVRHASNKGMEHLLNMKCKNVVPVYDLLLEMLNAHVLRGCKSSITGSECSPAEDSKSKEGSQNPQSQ

[8] = biological target: DNA (cytosine-5)-methyltransferase 1 (Homo sapiens, UniProt P26358); assay: DNMT1 methyltransferase inhibitors, confirmation, biochemical, fluorescent molecular beacon (AID 602386); format: functional
DNA (cytosine-5)-methyltransferase 1, sequence (P26358 whole entry): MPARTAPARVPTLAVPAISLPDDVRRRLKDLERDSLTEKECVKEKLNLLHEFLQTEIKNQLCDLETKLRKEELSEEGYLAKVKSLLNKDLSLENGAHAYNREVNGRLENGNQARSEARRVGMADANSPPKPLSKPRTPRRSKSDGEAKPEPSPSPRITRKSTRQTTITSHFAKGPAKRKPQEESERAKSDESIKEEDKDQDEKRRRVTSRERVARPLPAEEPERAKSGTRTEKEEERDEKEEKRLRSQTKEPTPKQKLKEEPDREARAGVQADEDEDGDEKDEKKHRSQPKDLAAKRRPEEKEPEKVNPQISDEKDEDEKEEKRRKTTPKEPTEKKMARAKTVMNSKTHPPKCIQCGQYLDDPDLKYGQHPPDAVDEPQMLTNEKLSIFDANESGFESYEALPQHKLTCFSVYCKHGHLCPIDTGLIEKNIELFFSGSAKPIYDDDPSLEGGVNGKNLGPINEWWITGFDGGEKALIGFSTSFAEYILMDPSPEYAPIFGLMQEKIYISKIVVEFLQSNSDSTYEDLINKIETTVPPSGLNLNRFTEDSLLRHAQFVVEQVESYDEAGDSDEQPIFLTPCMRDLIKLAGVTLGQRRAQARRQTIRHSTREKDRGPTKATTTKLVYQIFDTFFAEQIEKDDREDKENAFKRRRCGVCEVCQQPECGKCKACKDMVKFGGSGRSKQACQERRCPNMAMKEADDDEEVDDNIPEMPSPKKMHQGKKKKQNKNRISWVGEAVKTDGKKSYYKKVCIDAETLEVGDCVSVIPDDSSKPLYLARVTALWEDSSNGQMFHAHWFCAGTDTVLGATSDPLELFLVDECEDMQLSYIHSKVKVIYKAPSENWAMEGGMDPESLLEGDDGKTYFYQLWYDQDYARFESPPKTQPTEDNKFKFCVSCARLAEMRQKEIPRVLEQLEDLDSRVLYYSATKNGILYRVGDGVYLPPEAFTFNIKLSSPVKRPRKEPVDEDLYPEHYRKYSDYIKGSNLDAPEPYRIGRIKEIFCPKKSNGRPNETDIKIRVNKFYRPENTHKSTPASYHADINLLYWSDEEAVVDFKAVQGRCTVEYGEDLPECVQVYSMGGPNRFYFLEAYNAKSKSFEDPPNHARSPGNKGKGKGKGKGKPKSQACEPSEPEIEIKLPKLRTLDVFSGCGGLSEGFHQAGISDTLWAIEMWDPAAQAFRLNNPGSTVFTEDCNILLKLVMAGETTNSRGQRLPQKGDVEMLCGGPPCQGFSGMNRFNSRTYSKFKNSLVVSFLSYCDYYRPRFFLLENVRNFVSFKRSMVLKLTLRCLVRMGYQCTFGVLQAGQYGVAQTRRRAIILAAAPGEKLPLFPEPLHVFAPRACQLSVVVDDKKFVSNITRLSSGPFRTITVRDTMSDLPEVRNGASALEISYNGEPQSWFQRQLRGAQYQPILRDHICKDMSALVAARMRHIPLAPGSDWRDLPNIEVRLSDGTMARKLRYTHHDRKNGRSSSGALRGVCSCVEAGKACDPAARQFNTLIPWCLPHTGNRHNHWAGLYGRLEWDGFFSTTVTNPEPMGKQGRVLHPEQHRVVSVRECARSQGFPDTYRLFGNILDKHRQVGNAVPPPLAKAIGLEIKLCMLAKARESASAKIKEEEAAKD

Estrogen receptor beta [9] = biological target: T4, Estrogen receptor beta
Estrogen receptor = biological target: T5, Estrogen receptor (Homo sapiens, UniProt P03372);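 also: potency for inhibiting coactivator peptide recruitment to the receptor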
T5 sequence (P03372 whole entry): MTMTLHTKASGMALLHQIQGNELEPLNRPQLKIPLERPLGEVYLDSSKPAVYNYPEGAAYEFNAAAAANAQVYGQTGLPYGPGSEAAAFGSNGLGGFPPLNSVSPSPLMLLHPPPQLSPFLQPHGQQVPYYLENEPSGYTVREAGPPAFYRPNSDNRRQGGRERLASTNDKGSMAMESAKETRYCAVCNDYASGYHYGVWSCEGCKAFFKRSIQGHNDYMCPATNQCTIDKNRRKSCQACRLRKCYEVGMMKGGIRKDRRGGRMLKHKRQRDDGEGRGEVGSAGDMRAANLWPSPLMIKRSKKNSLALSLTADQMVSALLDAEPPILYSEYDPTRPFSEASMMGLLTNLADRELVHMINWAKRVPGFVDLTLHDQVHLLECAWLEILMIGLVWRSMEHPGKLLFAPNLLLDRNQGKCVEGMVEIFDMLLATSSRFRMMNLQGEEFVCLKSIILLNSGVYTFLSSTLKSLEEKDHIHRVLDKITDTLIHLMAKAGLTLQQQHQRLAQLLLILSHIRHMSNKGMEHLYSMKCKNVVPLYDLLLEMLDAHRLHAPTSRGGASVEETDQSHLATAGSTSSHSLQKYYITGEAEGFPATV

[10] = tested on: Streptococcus sp. 'group A'; assay: growth inhibition of control SK(-) GAS strain, dose response, counter-screen for streptokinase expression inhibitor project, luminescence, kanamycin, BacTiterGlo, confirmation (AID 1900); format: functional, organism-based
[11] = biological target: T6, Carboxy-terminal domain RNA polymerase II polypeptide A small phosphatase 1 (Homo sapiens, UniProt Q9GZU7); assay: inhibitors of CTDSP1, concentration-response testing, biochemical assay, absorbance-based, actives from ultra-high-throughput screening (AID 540297); format: functional
T6 sequence (Q9GZU7 whole entry): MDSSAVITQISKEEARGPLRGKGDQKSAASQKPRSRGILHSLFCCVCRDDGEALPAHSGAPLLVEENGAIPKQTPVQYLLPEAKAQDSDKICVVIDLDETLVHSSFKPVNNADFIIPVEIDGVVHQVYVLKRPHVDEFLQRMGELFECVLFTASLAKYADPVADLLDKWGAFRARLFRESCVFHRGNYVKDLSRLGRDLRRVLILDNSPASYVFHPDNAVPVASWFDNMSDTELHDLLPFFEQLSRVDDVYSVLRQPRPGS

[12] = biological target: T7, Corticotropin-releasing factor receptor 2/Corticotropin-releasing factor-binding protein (Homo sapiens, UniProt P24387+Q13324); assay: activators of CRF receptor 2 with binding protein – uHTS hits, confirmation (AID 602473); format: functional; settings: read-out: EC50_Mean
T7 sequence (Q13324 whole entry): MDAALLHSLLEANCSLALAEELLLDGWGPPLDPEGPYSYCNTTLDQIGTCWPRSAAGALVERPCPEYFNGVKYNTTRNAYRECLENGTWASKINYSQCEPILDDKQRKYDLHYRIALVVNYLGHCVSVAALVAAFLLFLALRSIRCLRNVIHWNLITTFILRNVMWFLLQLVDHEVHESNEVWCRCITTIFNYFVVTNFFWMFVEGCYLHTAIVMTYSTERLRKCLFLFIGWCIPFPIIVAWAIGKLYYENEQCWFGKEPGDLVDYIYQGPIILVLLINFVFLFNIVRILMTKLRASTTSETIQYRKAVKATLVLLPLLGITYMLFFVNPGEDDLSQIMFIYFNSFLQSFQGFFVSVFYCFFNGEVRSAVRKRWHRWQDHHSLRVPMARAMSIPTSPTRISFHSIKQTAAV
T7 sequence (P24387 whole entry): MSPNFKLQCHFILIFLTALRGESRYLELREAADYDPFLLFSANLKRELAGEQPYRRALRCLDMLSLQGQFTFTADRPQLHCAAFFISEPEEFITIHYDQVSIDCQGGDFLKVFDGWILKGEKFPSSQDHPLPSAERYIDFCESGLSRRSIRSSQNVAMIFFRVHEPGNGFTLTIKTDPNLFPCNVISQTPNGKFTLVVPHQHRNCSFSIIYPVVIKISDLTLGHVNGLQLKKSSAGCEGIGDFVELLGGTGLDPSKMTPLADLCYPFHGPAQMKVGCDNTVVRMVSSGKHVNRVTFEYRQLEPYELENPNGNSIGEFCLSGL

[13] = CRF-BP/CRF-R2 complex antagonists, dose response, cell-based, uHTS hits, 384-well (AID 651639); format: functional, Homo sapiens; settings: read-out: IC50_Mean
[14] = biological target: T7, Corticotropin-releasing factor receptor 2/Corticotropin-releasing factor-binding protein; assay: Dose Response confirmation of uHTS hits for small molecule antagonists of the CRF-binding protein and CRF-R2 receptor complex.; format: functional; settings: read-out: IC50_Mean
[15] = biological target: Hepatocyte nuclear factor 4-alpha (Homo sapiens, UniProt P41235); format: functional, cell-based;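 also: biochemical luminescence-based dose-response counterscreen measuring inhibition of HNF4 dimerization, run alongside a screen for blockers of ABHD5–perilipin-5 interaction; split luciferase complementation of HNF4 fusion proteins in cell lysate measuring dimerization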
Hepatocyte nuclear factor 4-alpha, sequence (P41235 whole entry, the tested form may be a part): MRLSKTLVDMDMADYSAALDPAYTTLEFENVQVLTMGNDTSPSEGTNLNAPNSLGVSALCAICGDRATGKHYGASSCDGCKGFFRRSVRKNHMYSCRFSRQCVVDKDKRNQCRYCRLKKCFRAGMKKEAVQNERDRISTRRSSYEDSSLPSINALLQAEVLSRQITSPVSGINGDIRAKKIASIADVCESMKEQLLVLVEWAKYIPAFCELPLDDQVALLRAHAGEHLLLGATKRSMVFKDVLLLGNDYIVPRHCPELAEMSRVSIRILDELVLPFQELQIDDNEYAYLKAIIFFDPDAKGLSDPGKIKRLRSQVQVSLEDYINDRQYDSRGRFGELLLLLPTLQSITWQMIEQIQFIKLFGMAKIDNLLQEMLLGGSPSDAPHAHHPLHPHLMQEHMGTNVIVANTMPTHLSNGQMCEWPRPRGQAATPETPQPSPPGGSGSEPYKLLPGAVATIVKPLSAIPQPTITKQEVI

[16] = biological target: T8, Aryl hydrocarbon receptor (Homo sapiens, UniProt P35869); settings: Potency;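 also: confirmatory quantitative high-throughput screen measuring activation of the AhR signaling pathway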
T8 sequence (P35869 whole entry): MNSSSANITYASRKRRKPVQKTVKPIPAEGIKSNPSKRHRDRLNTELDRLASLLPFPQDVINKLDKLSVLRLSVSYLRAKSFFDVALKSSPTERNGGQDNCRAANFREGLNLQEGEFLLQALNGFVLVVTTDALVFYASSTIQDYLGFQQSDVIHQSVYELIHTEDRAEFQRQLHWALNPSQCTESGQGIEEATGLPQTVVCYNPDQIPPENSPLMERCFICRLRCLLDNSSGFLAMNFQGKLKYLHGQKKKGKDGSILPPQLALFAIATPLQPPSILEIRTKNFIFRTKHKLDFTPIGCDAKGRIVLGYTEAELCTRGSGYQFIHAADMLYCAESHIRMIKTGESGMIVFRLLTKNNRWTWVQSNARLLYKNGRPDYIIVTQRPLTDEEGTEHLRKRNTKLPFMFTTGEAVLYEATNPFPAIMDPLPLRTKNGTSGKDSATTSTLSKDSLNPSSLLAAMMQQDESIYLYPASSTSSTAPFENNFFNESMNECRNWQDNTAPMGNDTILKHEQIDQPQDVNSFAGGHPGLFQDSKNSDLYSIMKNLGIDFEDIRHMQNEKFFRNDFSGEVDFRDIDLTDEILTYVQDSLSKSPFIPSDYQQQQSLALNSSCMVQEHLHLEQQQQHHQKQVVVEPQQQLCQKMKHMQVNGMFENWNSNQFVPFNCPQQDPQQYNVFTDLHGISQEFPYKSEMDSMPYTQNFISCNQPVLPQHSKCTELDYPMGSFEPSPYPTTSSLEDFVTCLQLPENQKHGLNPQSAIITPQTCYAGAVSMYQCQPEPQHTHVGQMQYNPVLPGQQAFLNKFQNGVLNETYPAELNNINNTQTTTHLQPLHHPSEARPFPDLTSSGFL

Cc1cccc(NC(=O)CSc2cccc3cccnc23)c1
AC50 [1]: 76.9 µM (active)

O=C(OCC(=O)N(CCc1ccccc1)Cc1ccccc1)c1ccccc1O
IC50 [2]: 1.83 µM (active)

OCCN1CCN(c2ncnc3ccc(Br)cc23)CC1
IC50 (Interleukin-8): 22 µM (inactive)

COC(=O)CC1=NN(c2nc(C)cc(C)n2)C(=O)C1
AC50 [3]: 123 µM (active)
EC50 (Protein RecA): > 380 µM (inactive)
AC50 [4]: 103 µM (active)

CCOC(=O)C(C)Sc1ncnc2c1nnn2-c1ccc(F)cc1 (centres undefined)
CC50 [5]: 55.2 µM (active)
EC50 (Protein RecA): 10.9 µM (active)
AC50 [4]: 10.4 µM (active)
CC50 [6]: 67.1 µM (active)

Cc1nn(-c2ccccc2)c(Cl)c1/C=N/Nc1ccc(S(=O)(=O)Nc2ccccc2C(=O)O)cc1[N+](=O)[O-]
IC50 (Genome polyprotein): 33.1 µM (active)
IC50 (Nonstructural protein 1): 67.6 µM (active)
EC50 (Streptococcus): 4.27 µM (active)
IC50 (Estrogen receptor beta [7]): > 50 µM (not active)
IC50 [8]: 4.29 µM (active)
IC50 (Estrogen receptor beta [9]): 7.26 µM (active)
IC50 (Estrogen receptor): 6.84 µM (active)
EC50 [10]: 1.86 µM (active)

C=CCn1cnc2c(c1=O)c1nc3ccccc3nc1n2/N=C/c1cccc(OC)c1OC
IC50 [11]: 10.1 µM (active)
EC50 [12]: > 53 µM (inactive)
IC50 [13]: 2.21 µM (active)
IC50 [14]: 3.36 µM (active)

O=C(NC1CCCCC1)C(c1cccc2ccccc12)n1c(=O)c(-c2ccco2)nc2ccccc21 (centres undefined)
IC50 [15]: 1.48 µM (active)

CC1(COc2ccc(CC3SC(=O)NC3=O)cc2)CCCCC1 (centres undefined) [CIGLITAZONE]
AC50 [16]: 56.2 µM (inconclusive)
